In patent US7700604B2, “Hydantoin derivatives as metalloproteinase inhibitors” (AstraZeneca AB, priority 2004, dated 2010):

Columns and labels:
Format in all cases: biochemical
[1] = target: T1, Recombinant human MMP12 catalytic domain (Homo sapiens, UniProt P39900); assay: Isolated enzyme assay MMP12 (fluorogenic substrate); details: substrate Mca-Pro-Cha-Gly-Nva-His-Ala-Dpa-NH2 10 μM, 60 minutes at room temperature, pH 7.3, read-out: hMMP12 IC50
T1 construct: Recombinant human MMP12 catalytic domain; made in house
T1 sequence (P39900 106-263 limits assumed): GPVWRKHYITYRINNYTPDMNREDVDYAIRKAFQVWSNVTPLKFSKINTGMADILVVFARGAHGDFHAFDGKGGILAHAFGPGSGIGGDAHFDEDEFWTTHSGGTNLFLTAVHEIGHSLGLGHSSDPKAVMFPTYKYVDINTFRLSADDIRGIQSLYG
Procedure: Recombinant human MMP12 catalytic domain may be expressed and purified as described by Parkar A. A. et al, (2000), Protein Expression and Purification, 20, 152. The purified enzyme can be used to monitor inhibitors of activity as follows: MMP12 (50 ng/ml final concentration) is incubated for 60 minutes at room temperature with the synthetic substrate Mca-Pro-Cha-Gly-Nva-His-Ala-Dpa-NH2 (10 μM) in assay buffer (0.1M “Tris-HCl” (trade mark) buffer, pH 7.3 containing 0.1M NaCl, 20 mM CaCl2, 0.020 mM ZnCl and 0.05% (w/v) “Brij 35” (trade mark) detergent) in the presence (10 concentrations) or absence of inhibitors. Activity is determined by measuring the fluorescence at λex 320 nm and λem 405 nm. Percent inhibition is calculated as follows: % Inhibition is equal to the [Fluorescenceplus inhibitor−Fluorescencebackground] divided by the [Fluorescenceminus inhibitor−Fluorescencebackground]. MMP8

[2] = target: T2, Recombinant human MMP9 catalytic domain (Homo sapiens, UniProt P14780); assay: Isolated enzyme assay MMP9 (fluorogenic substrate); details: substrate Mca-Pro-Cha-Gly-Nva-His-Ala-Dpa-NH2 5 μM, 30 minutes at RT, pH 7.3, read-out: hMMP9 IC50
T2 sequence (P14780 with tags, fused parts or gaps DEL216-390): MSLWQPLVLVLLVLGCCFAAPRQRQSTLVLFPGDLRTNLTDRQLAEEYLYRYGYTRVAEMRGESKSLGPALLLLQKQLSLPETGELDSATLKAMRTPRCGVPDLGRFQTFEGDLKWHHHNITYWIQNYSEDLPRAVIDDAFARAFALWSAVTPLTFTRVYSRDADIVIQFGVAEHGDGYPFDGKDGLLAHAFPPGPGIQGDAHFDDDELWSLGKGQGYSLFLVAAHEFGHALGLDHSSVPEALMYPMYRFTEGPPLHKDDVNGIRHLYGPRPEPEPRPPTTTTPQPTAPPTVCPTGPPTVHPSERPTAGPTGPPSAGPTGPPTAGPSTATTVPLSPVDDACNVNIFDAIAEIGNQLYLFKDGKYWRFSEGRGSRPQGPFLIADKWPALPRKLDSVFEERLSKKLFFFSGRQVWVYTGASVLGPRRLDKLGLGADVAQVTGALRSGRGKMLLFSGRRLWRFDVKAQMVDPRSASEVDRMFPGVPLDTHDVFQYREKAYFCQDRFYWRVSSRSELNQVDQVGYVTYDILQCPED
Procedure: Recombinant human MMP9 catalytic domain was expressed and then purified by Zn chelate column chromatography followed by hydroxamate affinity column chromatography. The enzyme can be used to monitor inhibitors of activity as follows: MMP9 (5 ng/ml final concentration) is incubated for 30 minutes at RT with the synthetic substrate Mca-Pro-Cha-Gly-Nva-His-Ala-Dpa-NH2 (5 μM) in assay buffer (0.1M “Tris-HCl” (trade mark) buffer, pH 7.3 containing 0.1M NaCl, 20 mM CaCl2, 0.020 mM ZnCl and 0.05% (w/v) “Brij 35” (trade mark) detergent) in the presence (10 concentrations) or absence of inhibitors. Activity is determined by measuring the fluorescence at λex 320 nm and λem 405 nm. Percent inhibition is calculated as follows: % Inhibition is equal to the [Fluorescenceplus inhibitor−Fluorescencebackgound] divided by the [Fluorescenceminus inhibitor−Fluorescencebackground]. […]

[3] = target: T3, Recombinant human MMP14 catalytic domain (Homo sapiens, UniProt P50281); assay: Isolated enzyme assay MMP14 (fluorogenic substrate); details: substrate Mca-Pro-Cha-Gly-Nva-His-Ala-Dpa-NH2 10 μM, 60 minutes at room temperature, pH 7.5, read-out: hMMP14 IC50
T3 construct: Recombinant human MMP14 catalytic domain; made in house
Procedure: Recombinant human MMP14 catalytic domain may be expressed and purified as described by Parkar A. A. et al, (2000), Protein Expression and Purification, 20, 152. The purified enzyme can be used to monitor inhibitors of activity as follows: MMP14 (10 ng/ml final concentration) is incubated for 60 minutes at room temperature with the synthetic substrate Mca-Pro-Cha-Gly-Nva-His-Ala-Dpa-NH2 (10 μM) in assay buffer (0.1M “Tris-HCl” (trade mark) buffer, pH 7.5 containing 0.1M NaCl, 20 mM CaCl2, 0.020 mM ZnCl and 0.05% (w/v) “Brij 35” (trade mark) detergent) in the presence (5 concentrations) or absence of inhibitors. Activity is determined by measuring the fluorescence at λex 320 nm and λem 405 nm. Percent inhibition is calculated as follows: % Inhibition is equal to the [Fluorescenceplus inhibitor−Fluorescencebackground] divided by the [Fluorescenceminus inhibitor−Fluorescencebackground].

IC50 [1] | IC50 [2] | IC50 [3] | Structure (SMILES)
7 nM | 8.3 nM | 1990 nM | C[C@]1(CS(=O)(=O)N2CCc3cc(-c4ccc(Cl)cc4)ncc3C2)NC(=O)NC1=O [Example 5, (5S)-5-({[6-(4-Chlorophenyl)-3,4-dihydro-2,7-naphthyridin-2(1H)-yl]sulfonyl}methyl)-5-methylimidazolidine-2,4-dione]
1.4 nM | 3.5 nM | 415 nM | C[C@]1(CS(=O)(=O)N2CCc3cc(-c4ccc(Cl)cc4)ccc3C2)NC(=O)NC1=O [Example 2, (5S)-5-({[6-(4-Chlorophenyl)-3,4-dihydroisoquinolin-2(1H)-yl]sulfonyl}methyl)-5-methylimidazolidine-2,4-dione]
10.4 nM | 29.3 nM | > 10000 nM | C[C@]1(CS(=O)(=O)N2CCc3cc(-c4cnc(C(F)(F)F)nc4)ccc3C2)NC(=O)NC1=O [Example 1, (5)-5-Methyl-5-({[6-[2-(trifluoromethyl)pyrimidin-5-yl]-3,4-dihydroisoquinolin-2(1H)-yl]sulfonyl}methyl)imidazolidine-2,4-dione]
